# Test results: ChEMBL document CHEMBL5303573, “Mapping human microbiome drug metabolism by gut bacteria and their genes” (Nature, 2019)
# Assay: The drug is tested on Anaerococcus hydrogenalis strain: DSM7454 for biotransformation. The drug concentrations were measured before and after a 12-h incubation by liquid-chromatography-coupled mass spectrometry (LC–MS)
# Details: 2 µM
row,SMILES,Bacterial Biotransformation
1,COc1cc2nc(N3CCN(C(=O)c4ccco4)CC3)nc(N)c2cc1OC [PRAZOSIN],Compound NOT metabolized
2,CC(N)C12CC3CC(CC(C3)C1)C2 (stereo not given) [RIMANTADINE],Compound NOT metabolized
3,CC[C@@]1(O)C(=O)OCc2c1cc1n(c2=O)Cc2cc3c(CN(C)C)c(O)ccc3nc2-1 [TOPOTECAN],Compound NOT metabolized
4,O=C1N=C([O-])NC1(c1ccccc1)c1ccccc1.[Na+] [PHENYTOIN SODIUM],Compound NOT metabolized

# Details: enterocloster bolteae, 12 h, 2 µM
row,SMILES,Bacterial Biotransformation
1,COc1cc2nc(N3CCN(C(=O)c4ccco4)CC3)nc(N)c2cc1OC [PRAZOSIN],Compound NOT metabolized
2,CC(N)C12CC3CC(CC(C3)C1)C2 (stereo not given) [RIMANTADINE],Compound NOT metabolized
3,CC[C@@]1(O)C(=O)OCc2c1cc1n(c2=O)Cc2cc3c(CN(C)C)c(O)ccc3nc2-1 [TOPOTECAN],Compound NOT metabolized
4,O=C1N=C([O-])NC1(c1ccccc1)c1ccccc1.[Na+] [PHENYTOIN SODIUM],Compound NOT metabolized

# Assay: The drug is tested on Bifidobacterium longum subsp. Infantis strain: CCUG52486 for biotransformation. The drug concentrations were measured before and after a 12-h incubation by liquid-chromatography-coupled mass spectrometry (LC–MS)
# Details: 2 µM
row,SMILES,Bacterial Biotransformation
1,COc1cc2nc(N3CCN(C(=O)c4ccco4)CC3)nc(N)c2cc1OC [PRAZOSIN],Compound NOT metabolized
2,CC(N)C12CC3CC(CC(C3)C1)C2 (stereo not given) [RIMANTADINE],Compound NOT metabolized
3,CC[C@@]1(O)C(=O)OCc2c1cc1n(c2=O)Cc2cc3c(CN(C)C)c(O)ccc3nc2-1 [TOPOTECAN],Compound NOT metabolized

# Assay: The drug is tested on Parabacteroides merdae strain: ATCC43184 for biotransformation. The drug concentrations were measured before and after a 12-h incubation by liquid-chromatography-coupled mass spectrometry (LC–MS)
# Details: 2 µM
row,SMILES,Bacterial Biotransformation
1,COc1cc2nc(N3CCN(C(=O)c4ccco4)CC3)nc(N)c2cc1OC [PRAZOSIN],Compound NOT metabolized
2,CC(N)C12CC3CC(CC(C3)C1)C2 (stereo not given) [RIMANTADINE],Compound NOT metabolized
3,CC[C@@]1(O)C(=O)OCc2c1cc1n(c2=O)Cc2cc3c(CN(C)C)c(O)ccc3nc2-1 [TOPOTECAN],Compound NOT metabolized
4,O=C1N=C([O-])NC1(c1ccccc1)c1ccccc1.[Na+] [PHENYTOIN SODIUM],Compound metabolized

# Assay: The drug is tested on Providencia stuartii strain: ATCC25827 for biotransformation. The drug concentrations were measured before and after a 12-h incubation by liquid-chromatography-coupled mass spectrometry (LC–MS)
# Details: 2 µM
row,SMILES,Bacterial Biotransformation
1,COc1cc2nc(N3CCN(C(=O)c4ccco4)CC3)nc(N)c2cc1OC [PRAZOSIN],Compound NOT metabolized
2,CC(N)C12CC3CC(CC(C3)C1)C2 (stereo not given) [RIMANTADINE],Compound NOT metabolized
3,O=C1N=C([O-])NC1(c1ccccc1)c1ccccc1.[Na+] [PHENYTOIN SODIUM],Compound NOT metabolized

# Details: bacteroides thetaiotaomicron, 12 h, 2 µM
row,SMILES,Bacterial Biotransformation
1,COc1cc2nc(N3CCN(C(=O)c4ccco4)CC3)nc(N)c2cc1OC [PRAZOSIN],Compound NOT metabolized
2,CC(N)C12CC3CC(CC(C3)C1)C2 (stereo not given) [RIMANTADINE],Compound NOT metabolized
3,CC[C@@]1(O)C(=O)OCc2c1cc1n(c2=O)Cc2cc3c(CN(C)C)c(O)ccc3nc2-1 [TOPOTECAN],Compound NOT metabolized

# Assay: The drug is tested on Bacteroides coprophilus strain: DSM18228 for biotransformation. The drug concentrations were measured before and after a 12-h incubation by liquid-chromatography-coupled mass spectrometry (LC–MS)
# Details: 2 µM
row,SMILES,Bacterial Biotransformation
1,COc1cc2nc(N3CCN(C(=O)c4ccco4)CC3)nc(N)c2cc1OC [PRAZOSIN],Compound NOT metabolized
2,CC(N)C12CC3CC(CC(C3)C1)C2 (stereo not given) [RIMANTADINE],Compound NOT metabolized
3,CC[C@@]1(O)C(=O)OCc2c1cc1n(c2=O)Cc2cc3c(CN(C)C)c(O)ccc3nc2-1 [TOPOTECAN],Compound NOT metabolized
4,O=C1N=C([O-])NC1(c1ccccc1)c1ccccc1.[Na+] [PHENYTOIN SODIUM],Compound metabolized

# Assay: The drug is tested on Bacteroides pectinophilus strain: ATCC43243 for biotransformation. The drug concentrations were measured before and after a 12-h incubation by liquid-chromatography-coupled mass spectrometry (LC–MS)
# Details: 2 µM
row,SMILES,Bacterial Biotransformation
1,COc1cc2nc(N3CCN(C(=O)c4ccco4)CC3)nc(N)c2cc1OC [PRAZOSIN],Compound NOT metabolized
2,CC(N)C12CC3CC(CC(C3)C1)C2 (stereo not given) [RIMANTADINE],Compound NOT metabolized
3,O=C1N=C([O-])NC1(c1ccccc1)c1ccccc1.[Na+] [PHENYTOIN SODIUM],Compound NOT metabolized

# Assay: The drug is tested on Collinsella aerofaciens strain: ATCC25986 for biotransformation. The drug concentrations were measured before and after a 12-h incubation by liquid-chromatography-coupled mass spectrometry (LC–MS)
# Details: 2 µM
row,SMILES,Bacterial Biotransformation
1,COc1cc2nc(N3CCN(C(=O)c4ccco4)CC3)nc(N)c2cc1OC [PRAZOSIN],Compound NOT metabolized
2,CC(N)C12CC3CC(CC(C3)C1)C2 (stereo not given) [RIMANTADINE],Compound NOT metabolized
3,CC[C@@]1(O)C(=O)OCc2c1cc1n(c2=O)Cc2cc3c(CN(C)C)c(O)ccc3nc2-1 [TOPOTECAN],Compound NOT metabolized
4,O=C1N=C([O-])NC1(c1ccccc1)c1ccccc1.[Na+] [PHENYTOIN SODIUM],Compound metabolized

# Assay: The drug is tested on Bacteroides sp. WH2 strain: WH2 for biotransformation. The drug concentrations were measured before and after a 12-h incubation by liquid-chromatography-coupled mass spectrometry (LC–MS)
# Details: bacteroides sp. wh2, 12 h, 2 µM
row,SMILES,Bacterial Biotransformation
1,COc1cc2nc(N3CCN(C(=O)c4ccco4)CC3)nc(N)c2cc1OC [PRAZOSIN],Compound NOT metabolized
2,CC(N)C12CC3CC(CC(C3)C1)C2 (stereo not given) [RIMANTADINE],Compound NOT metabolized
3,CC[C@@]1(O)C(=O)OCc2c1cc1n(c2=O)Cc2cc3c(CN(C)C)c(O)ccc3nc2-1 [TOPOTECAN],Compound NOT metabolized
4,O=C1N=C([O-])NC1(c1ccccc1)c1ccccc1.[Na+] [PHENYTOIN SODIUM],Compound metabolized

# Details: bacteroides eggerthii, 12 h, 2 µM
row,SMILES,Bacterial Biotransformation
1,COc1cc2nc(N3CCN(C(=O)c4ccco4)CC3)nc(N)c2cc1OC [PRAZOSIN],Compound NOT metabolized
2,CC(N)C12CC3CC(CC(C3)C1)C2 (stereo not given) [RIMANTADINE],Compound NOT metabolized

# Assay: The drug is tested on Bacteroides dorei strain: DSM17855 for biotransformation. The drug concentrations were measured before and after a 12-h incubation by liquid-chromatography-coupled mass spectrometry (LC–MS)
# Details: phocaeicola dorei, 2 µM
row,SMILES,Bacterial Biotransformation
1,CC[C@@]1(O)C(=O)OCc2c1cc1n(c2=O)Cc2cc3c(CN(C)C)c(O)ccc3nc2-1 [TOPOTECAN],Compound NOT metabolized
2,O=C1N=C([O-])NC1(c1ccccc1)c1ccccc1.[Na+] [PHENYTOIN SODIUM],Compound metabolized

# Assay: The drug is tested on Bacteroides fragilis strain: HMW610 for biotransformation. The drug concentrations were measured before and after a 12-h incubation by liquid-chromatography-coupled mass spectrometry (LC–MS)
# Details: 2 µM
row,SMILES,Bacterial Biotransformation
1,COc1cc2nc(N3CCN(C(=O)c4ccco4)CC3)nc(N)c2cc1OC [PRAZOSIN],Compound NOT metabolized
2,CC(N)C12CC3CC(CC(C3)C1)C2 (stereo not given) [RIMANTADINE],Compound NOT metabolized
3,CC[C@@]1(O)C(=O)OCc2c1cc1n(c2=O)Cc2cc3c(CN(C)C)c(O)ccc3nc2-1 [TOPOTECAN],Compound NOT metabolized
4,O=C1N=C([O-])NC1(c1ccccc1)c1ccccc1.[Na+] [PHENYTOIN SODIUM],Compound NOT metabolized

# Details: bacteroides intestinalis, 12 h, 2 µM
row,SMILES,Bacterial Biotransformation
1,COc1cc2nc(N3CCN(C(=O)c4ccco4)CC3)nc(N)c2cc1OC [PRAZOSIN],Compound NOT metabolized
2,CC(N)C12CC3CC(CC(C3)C1)C2 (stereo not given) [RIMANTADINE],Compound NOT metabolized
3,CC[C@@]1(O)C(=O)OCc2c1cc1n(c2=O)Cc2cc3c(CN(C)C)c(O)ccc3nc2-1 [TOPOTECAN],Compound NOT metabolized
4,O=C1N=C([O-])NC1(c1ccccc1)c1ccccc1.[Na+] [PHENYTOIN SODIUM],Compound NOT metabolized

# Details: limosilactobacillus reuteri cf48-3a, 12 h, 2 µM
row,SMILES,Bacterial Biotransformation
1,COc1cc2nc(N3CCN(C(=O)c4ccco4)CC3)nc(N)c2cc1OC [PRAZOSIN],Compound NOT metabolized
2,CC(N)C12CC3CC(CC(C3)C1)C2 (stereo not given) [RIMANTADINE],Compound NOT metabolized
3,CC[C@@]1(O)C(=O)OCc2c1cc1n(c2=O)Cc2cc3c(CN(C)C)c(O)ccc3nc2-1 [TOPOTECAN],Compound NOT metabolized
4,O=C1N=C([O-])NC1(c1ccccc1)c1ccccc1.[Na+] [PHENYTOIN SODIUM],Compound NOT metabolized

# Assay: The drug is tested on Ruminococcus gnavus strain: ATCC29149 for biotransformation. The drug concentrations were measured before and after a 12-h incubation by liquid-chromatography-coupled mass spectrometry (LC–MS)
# Details: mediterraneibacter gnavus, 2 µM
row,SMILES,Bacterial Biotransformation
1,CC(N)C12CC3CC(CC(C3)C1)C2 (stereo not given) [RIMANTADINE],Compound NOT metabolized
2,CC[C@@]1(O)C(=O)OCc2c1cc1n(c2=O)Cc2cc3c(CN(C)C)c(O)ccc3nc2-1 [TOPOTECAN],Compound NOT metabolized
3,O=C1N=C([O-])NC1(c1ccccc1)c1ccccc1.[Na+] [PHENYTOIN SODIUM],Compound NOT metabolized

# Assay: The drug is tested on Collinsella intestinalis strain: DSM13280 for biotransformation. The drug concentrations were measured before and after a 12-h incubation by liquid-chromatography-coupled mass spectrometry (LC–MS)
# Details: 2 µM
row,SMILES,Bacterial Biotransformation
1,COc1cc2nc(N3CCN(C(=O)c4ccco4)CC3)nc(N)c2cc1OC [PRAZOSIN],Compound NOT metabolized
2,CC(N)C12CC3CC(CC(C3)C1)C2 (stereo not given) [RIMANTADINE],Compound NOT metabolized
3,CC[C@@]1(O)C(=O)OCc2c1cc1n(c2=O)Cc2cc3c(CN(C)C)c(O)ccc3nc2-1 [TOPOTECAN],Compound NOT metabolized

# Assay: The drug is tested on Edwardsiella tarda strain: ATCC23685 for biotransformation. The drug concentrations were measured before and after a 12-h incubation by liquid-chromatography-coupled mass spectrometry (LC–MS)
# Details: 2 µM
row,SMILES,Bacterial Biotransformation
1,COc1cc2nc(N3CCN(C(=O)c4ccco4)CC3)nc(N)c2cc1OC [PRAZOSIN],Compound NOT metabolized
2,CC(N)C12CC3CC(CC(C3)C1)C2 (stereo not given) [RIMANTADINE],Compound NOT metabolized
3,CC[C@@]1(O)C(=O)OCc2c1cc1n(c2=O)Cc2cc3c(CN(C)C)c(O)ccc3nc2-1 [TOPOTECAN],Compound NOT metabolized

# Details: bacteroides stercoris, 12 h, 2 µM
row,SMILES,Bacterial Biotransformation
1,COc1cc2nc(N3CCN(C(=O)c4ccco4)CC3)nc(N)c2cc1OC [PRAZOSIN],Compound NOT metabolized
2,CC(N)C12CC3CC(CC(C3)C1)C2 (stereo not given) [RIMANTADINE],Compound NOT metabolized
3,CC[C@@]1(O)C(=O)OCc2c1cc1n(c2=O)Cc2cc3c(CN(C)C)c(O)ccc3nc2-1 [TOPOTECAN],Compound NOT metabolized
4,O=C1N=C([O-])NC1(c1ccccc1)c1ccccc1.[Na+] [PHENYTOIN SODIUM],Compound NOT metabolized
